Results: patent US20200062712A1, “ALDEHYDE TRAPPING COMPOUNDS AND USES THEREOF” (Aldeyra Therapeutics, Inc., priority 2016, published 2020)

What was measured:
[1] = Rate of formation of aldehyde (4-HNE) adducts, HPLC product peak over time; details: for Formation of Product 7 Hours (ranking, most effective to least) / Formation of Product 23 Hours (ranking, most effective to least): rank 1 = most effective; for Gradient (rate of product peak increase, formation of aldehyde adduct): best fit line
Method: It is not possible to conclude if this is the result of poor dissociation (from cyclodextrin) or poor interaction with the aldehyde. Best fit lines over this period give excellent fit to data. […] It can be used to relatively rank each of the samples examined, including NS2. The data were first evaluated over a 7 h time window.
Similar results were obtained when the window was extended to 23 h. However, two of the compounds yielded lower R. Sq. values in this context.
During this time period 3 of the 5 samples reached equilibrium.

[2] = test system: brain slices of B6.129-Aldh5a1tm1Kmg/J (SSADH null) mice; test: Ex vivo SSADH study: GABA and GHB content of brain slices and incubation media by HPLC; format: cell-based; details: 100 μg/mL, 24 hours incubation; SSADH null mouse brain slices
Method: Three and one half (3.5) days after birth, B6.129-Aldh5a1^tm1Kmg/J (SSADH null) mice and wild type (wt) littermates animals were sacrificed and brains were harvested. […] Brain slices and the incubation media (sup) were then analyzed by HPLC for GHB and GABA content.

[3] = Formation of 4-HNE adduct with exemplary compounds (AUC of adduct over time); details: one equivalent of 4-HNE and 2 equivalents of compound; performed twice
Method: The ability of exemplary compounds to react with 4-HNE and form the corresponding adduct was measured. All compounds were analyzed by HPLC at 254 nm for their purity prior to the reaction.
Area under the curve (AUC) of each adduct was plotted over time.

[4] = Consumption of 4-HNE over time, HPLC at 254 nm; details: for Consumption of 4-HNE 7 Hours (ranking, most effective to least): rank 1 = most effective; for Consumption of 4-HNE 23 Hours (ranking, most effective to least): small differences between samples ranking 1-4, essentially identical; for Decrease in HNE versus corresponding increase in adduct: one-week time period
Excerpt: Five of 6 samples show consumption of 4-HNE. One sample (2-(3-aminoquinolin-2-yl)propan-2-ol) overlaps the 4-HNE HPLC peak using the current method. Best fit lines over this period give poorer fit to data than product formation data. Rate of 4-HNE consumption can be used as an approximation of binding kinetics.
The samples appeared to reach equilibrium, with the ongoing decrease in HNE amounts possibly due to another degradative pathway.

[5] = test system: abcr−/− knockout mice; format: in vivo; details: 10 mg/kg IP daily for 56 days, p=0.011
Method: This experiment is designed to establish proof of concept that chronic intraperitoneal administration of a RAL-trap compound lowers the accumulation rate of A2E in B6:129SvEv-Abcr (abcr−/−) mice.
The study was performed with B6:129SvEv-Abcr (abcr−/−) mice. Treatment groups included 24 mice (males and females) per treatment condition. Each animal was treated with one of the following conditions: • Control: a commercially available compound known clinically to modulate retinal function in humans and known experimentally to form a Schiff base adduct with free RAL, both in vitro and in vivo in animal models. • Vehicle • Compound • Untreated
A third group of animals served as untreated controls and were sacrificed on Day 1 of the study.
The experiments described herein used a variety of biology and biochemistry services. If necessary, non-toxic doses of compounds of the invention, formulated for treatment with an eye drop or other formations, may be established, e.g., in the rabbit with an ocular irritation protocol. […] Light responses were characterized by ERG (Weng, et al., Cell 98:13, 1999). Intracellular A2E concentration of retinal RPE cell extracts were measured using an analytical method such as those described by Karan et al., 2005; Radu et al., 2003; and Parish et al., PNAS 95:14609, 1998.

[6] = 7 h time window, samples in cyclodextrin

Compound	Formation of Product 7 Hours (ranking, most effective to least) [1]	Formation of Product 23 Hours (ranking, most effective to least) [1]	Gradient (rate of product peak increase, formation of aldehyde adduct) [1, 6]	Gradient (rate of product peak increase, formation of aldehyde adduct) ([1]; window extended to 23 h)	GABA content compared to the controls [2]	GHB content compared to the controls [2]	Formation of the corresponding adduct with 4-HNE [3]	Consumption of 4-HNE 7 Hours (ranking, most effective to least) [4]	Consumption of 4-HNE 23 Hours (ranking, most effective to least) [4]	Gradient (rate of 4-HNE consumption) ([4]; 23 h)	Gradient (rate of 4-HNE consumption) ([4]; first 7 h, analysis at 254 nm)	Decrease in HNE versus corresponding increase in adduct [4]	Reduction of formation of A2E compared with vehicle-treated controls [5]
CC(C)(O)c1nc2ccccc2cc1N [Compound I-1, 2-(3-aminoquinolin-2-yl)propan-2-ol]	1	1	(Gradient 3.68, R.	(Gradient 1.99, R.	decreased	decreased	formed the corresponding adduct with 4-HNE	–	–	–	–	–	–
CC(C)(O)c1nc2cccc(Cl)c2cc1N [Compound I-2, 2-(3-amino-5-chloroquinolin-2yl)propan-2-ol]	6	6	(Gradient 0.86, R.	(Gradient 0.44, R.	–	–	–	3	2	(Gradient −0.04, R.	(Gradient −0.05, R.	–	–
CC(C)(O)c1nc2cc(Cl)ccc2cc1N [Compound I-3, 2-(3-amino-7-chloroquinolin-2-yl)propan-2-ol]	3	3	(Gradient 2.02, R.	(Gradient 1.21, R.	–	–	–	2	1	(Gradient −0.05, R.	(Gradient −0.06, R.	decrease in HNE is greater than the corresponding increase in adduct	–
CC(C)(O)c1nc2c(Cl)cccc2cc1N [Compound I-4, 2-(3-amino-8-chloroquinolin-2-yl)propan-2-ol]	5	5	(Gradient 1.18, R.	(Gradient 0.81, R.	–	–	–	5	5	(Gradient −0.02, R.	(Gradient −0.01, R.	decrease in HNE is greater than the corresponding increase in adduct	–
CC(C)(O)c1nc2ccc(Br)cc2cc1N [Compound I-5, 2-(3-amino-6-bromoquinolin-2-yl)propan-2-ol]	4	4	(Gradient 1.63, R.	(Gradient 1.16, R.	–	–	–	4	4	(Gradient −0.04, R.	(Gradient −0.04, R.	–	–
CC(C)(O)c1nc2ccc(Cl)cc2cc1N [NS2, 2-(3-amino-6-chloroquinolin-2-yl)propan-2-ol, reference compound]	2	2	(Gradient 2.22, R.	(Gradient 1.33, R.	decreased	decreased	formed the corresponding adduct with 4-HNE	1	3	(Gradient −0.04, R.	(Gradient −0.15, R.	–	71%
